Source: PMC10508264, “Exploring the antioxidant, antimicrobial, cytotoxic and biothermodynamic properties of novel morpholine derivative bioactive Mn(II), Co(II) and Ni(II) complexes – combined experimental and theoretical measurements towards DNA/BSA/SARS-CoV-2 3CL^Pro” (RSC Medicinal Chemistry, 2023)

Tests used:
[1] = system: CT-DNA; assay: DNA thermal denaturation / biothermodynamic properties; format: binding; conditions: for Tm of DNA–substance adduct: 1:1 ratio (50 μM), free CT-DNA 68 °C; for Binding constant Kr @ 298 K: 25 °C (298 K); for ΔTm: adduct vs CT-DNA alone
[2] = system: CT-DNA; assay: DNA binding by UV-vis absorption titration; conditions: for % H (hypochromism): Tris-HCl pH 7.4, 25 °C; for Kb, BH-I (Benesi–Hildebrand method I) / Kb, BH-II (Benesi–Hildebrand method II) / Kb, SK-I (Sakthi–Krause method I) / Kb, SK-II (Sakthi–Krause method II) / Kb, WS-I (Wolfe–Shimmer method I) / Kb, WS-II (Wolfe–Shimmer method II): pH 7.4, 25 °C
Protocol: The DNA-binding experiment was conducted with an electronic absorption spectrophotometer by raising the DNA concentration from zero to 50 μM to the given concentration of all samples (50 μM) in Tris-HCl buffer (5 mM Tris-HCl/50 mM NaCl) with a pH of 7.4 at 25 °C.[13,23–26]
Most medications involve intercalation and groove binding via GC (guanine/cytosine)-rich and AT (adenine/thymine)-rich domains, respectively. The interactions were determined experimentally by electronic absorption spectrum titration. Moreover, intercalating binding is indicated by bathochromic and hypochromic shifts in the absorption spectra, whereas groove binding of the complexes with DNA is indicated by hyperchromic shifts in the titration curve.[61] Generally, four kinds of non-covalent engagements that can be absolutely critical in the interaction of substances with DNA are most frequently illustrated in the literature: (i) involves a negatively charged phosphate fragment as a result of electrostatic interaction; (ii) influences weak van der Waals force attraction/H-bonding; (iii) interaction of a functional moiety with the grooves (major/minor) of the double-stranded DNA as a result of a molecule sticking due to general attraction, or as a result of water or H-bonding expulsion, etc.; (iv) the stacked base pairs of natural DNA are intercalated by hydrophobic forces. Nevertheless, substances are engaged in the reaction because of […] preferred N-7 position and adenine's N-3 location in DNA. The DNA base pairing may also be prevented due to miscoding. All complexes (1–3), including free ligand (HL), were measured both when DNA was present and when it was absent using ultraviolet–visible spectrophotometric absorption titrations in buffer solution with a pH of 7.4 at 25 °C (Fig. 3). In this case, all substances were exposed to two prominent electronic absorption bands of about 260 nm and 335–343 nm, consequent to the π–π* transitions of the phenyl chromophore and MLCT, respectively. While the amount of DNA in each compound rises, the interaction of the chemical substance with DNA base pairs generates noticeable alterations in the strength and wavelength of the intra-ligand charge transfer bands. […] Using Wolfe–Shimmer eqn (1) and (2), Benesi–Hildebrand eqn (3) and (4) and Sakthi–Krause eqn (5) and (6), the observed overall Kb values for all samples were in the following sequence: (2) > (3) > (1) > (HL). […] It is concluded that the co-planarity of the morpholine-linked ligand and complexation of the 2,2′-bipyridine aromatic system with the metal centre promote the ability of the complex to infiltrate DNA base pairs smoothly. Large aromatic systems may also assist the complex to deeply penetrate the core of the phosphate backbone, and those substances may permit the complex to freely penetrate deep into the DNA base pairs. […] The Wolfe–Shimmer eqn (1) and (2),[62] Benesi–Hildebrand eqn (3) and (4),[63] and Sakthi–Krause eqn (5) and (6) were applied to evaluate the Kb results for all samples, which were obtained by modification of the Lineweaver–Burk and Stern–Volmer equations (Table 1).
The Kb values were measured using the Wolfe–Shimmer eqn (1) and (2) from the linear regression plots of [DNA]/(εa − εf) vs. [DNA] M^−1 for method I and (εb − εf)/(εa − εf) vs. 1/[DNA] M^−1 for method II, respectively (Fig. S15 ^†). The Benesi–Hildebrand binding constant (Kb) values were measured using eqn (3) and (4) from the linear regression plots of [1/(Ax − A0)] vs. {1/[DNA]} M^−1 for method I and [(Amax − A0)/(Ax − A0)] vs. {1/[DNA]} M^−1 for method II, respectively (Fig. S16 ^†). The Kb values were estimated using Sakthi–Krause eqn (5) and (6) from the linear regression plots of [A/(A0 − A)] vs. {1/[DNA]} M^−1 for method I (Fig. S17 ^†) and {1/[DNA]} vs. log[A/(A0 − A)] M^−1 for method II (Fig. S18 ^†). In addition, A0 and A represent the absorbance intensity values in the absence and presence of [DNA], respectively. […]

[3] = Superoxide scavenging assay; conditions: for % Inhibition, superoxide: 590 nm; for IC50: read-out: IC50, superoxide

SMILES | Tm of DNA–substance adduct [1] | Binding constant ([1]; 10 °C (283 K)) | Binding constant Kr @ 298 K [1] | Binding constant ([1]; 40 °C (313 K)) | ΔTm [1] | % H (hypochromism) [2] | Kb, BH-I (Benesi–Hildebrand method I) [2] | Kb, BH-II (Benesi–Hildebrand method II) [2] | Kb, SK-I (Sakthi–Krause method I) [2] | Kb, SK-II (Sakthi–Krause method II) [2] | Kb, WS-I (Wolfe–Shimmer method I) [2] | Kb, WS-II (Wolfe–Shimmer method II) [2] | % Inhibition, superoxide ([3]; 40 µM) | % Inhibition, superoxide ([3]; 80 µM) | % Inhibition, superoxide ([3]; 120 µM) | % Inhibition, superoxide ([3]; 160 µM) | % Inhibition, superoxide ([3]; 200 µM) | % Inhibition, superoxide ([3]; 240 µM) | IC50 [3]
Oc1ccccc1N=Cc1ccc(N2CCOCC2)cc1 [(HL), 2-(4-morpholinobenzylideneamino)phenol] | 74 °C | 52575 M⁻¹ | 15169 M⁻¹ | 6067.4 M⁻¹ | 6 °C | 37.13% | 6000 M⁻¹ | 19515 M⁻¹ | 8775 M⁻¹ | 17216 M⁻¹ | 15169 M⁻¹ | 15480 M⁻¹ | 05.23% | 10.74% | 18.85% | 33.55% | 40.91% | 50.42% | –
[Mn+2].[O-]c1ccccc1N=Cc1ccc(N2CCOCC2)cc1.[O-]c1ccccc1N=Cc1ccc(N2CCOCC2)cc1.c1ccc(-c2ccccn2)nc1 [(1)] | 76 °C | 72350 M⁻¹ | 18195 M⁻¹ | 7732.1 M⁻¹ | 8 °C | 40.61% | 9942 M⁻¹ | 21067 M⁻¹ | 11049 M⁻¹ | 20389 M⁻¹ | 18195 M⁻¹ | 20826 M⁻¹ | 06.85% | 13.32% | 22.56% | 36.63% | 45.42% | 54.12% | –
[Ni+2].[O-]c1ccccc1N=Cc1ccc(N2CCOCC2)cc1.[O-]c1ccccc1N=Cc1ccc(N2CCOCC2)cc1.c1ccc(-c2ccccn2)nc1 [(3)] | 77 °C | 91140 M⁻¹ | 18207 M⁻¹ | 7879.7 M⁻¹ | 9 °C | 43.46% | 18212 M⁻¹ | 20938 M⁻¹ | 13001 M⁻¹ | 20417 M⁻¹ | 18207 M⁻¹ | 21275 M⁻¹ | 06.27% | 12.17% | 24.31% | 40.01% | 50.78% | 58.83% | 200 µM
[Co+2].[O-]c1ccccc1N=Cc1ccc(N2CCOCC2)cc1.[O-]c1ccccc1N=Cc1ccc(N2CCOCC2)cc1.c1ccc(-c2ccccn2)nc1 [(2)] | 78 °C | 98820 M⁻¹ | 18806 M⁻¹ | 8043.3 M⁻¹ | 10 °C | 36.16% | 10468 M⁻¹ | 21524 M⁻¹ | 14965 M⁻¹ | 22526 M⁻¹ | 18806 M⁻¹ | 21379 M⁻¹ | 07.02% | 11.73% | 25.81% | 43.12% | 54.42% | 62.24% | 200 µM
